Results from patent US20150344427A1 (EPIZYME, INC., priority 2012, published 2015).
pIC50: −log10 of the molar value.

Columns and labels:
[1] = system: H3K27 trimethylation in WSU-DLCL2 cells; experiment: WSU-DLCL2 Methylation Assay (H3K27me3 ELISA); type: cell-based; conditions: Homo sapiens, WSUDLCL2, 96 hours incubation, H3K27me3 normalised to total Histone H3
Description: WSU-DLCL2 suspension cells were purchased from DSMZ (German Collection of Microorganisms and Cell Cultures, Braunschweig, Germany). RPMI/Glutamax Medium, Penicillin-Streptomycin, Heat Inactivated Fetal Bovine Serum, and D-PBS were purchased from Life Technologies, Grand Island, N.Y., USA. Extraction Buffer and Neutralization Buffer (5×) were purchased from Active Motif, Carlsbad, Calif., USA. Rabbit anti-Histone H3 antibody was purchased from Abcam, Cambridge, Mass., USA. Rabbit anti-H3K27me3 and HRP-conjugated anti-rabbit-IgG were purchased from Cell Signaling Technology, Danvers, Mass., USA. TMB “Super Sensitive” substrate was sourced from BioFX Laboratories, Owings Mills, Md., USA. IgG-free Bovine Serum Albumin was purchased from Jackson ImmunoResearch, West Grove, Pa., USA. PBS with Tween (10×PBST) was purchased from KPL, Gaithersburg, Md., USA. Sulfuric Acid was purchased from Ricca Chemical, Arlington, Tex., USA. Immulon ELISA plates were purchased from Thermo, Rochester, N.Y., USA. V-bottom cell culture plates were purchased from Corning Inc., Corning, N.Y., USA. V-bottom polypropylene plates were purchased from Greiner Bio-One, Monroe, N.C., USA.
(§1) WSU-DLCL2 suspension cells were maintained in growth medium (RPMI 1640 supplemented with 10% v/v heat inactivated fetal bovine serum and 100 units/mL penicillin-streptomycin) and cultured at 37° C. under 5% CO2 Under assay conditions, cells were incubated in Assay Medium (RPMI 1640 supplemented with 20% v/v heat inactivated fetal bovine serum and 100 units/mL penicillin-streptomycin) at 37° C. under 5% CO2 on a plate shaker.
WSU-DLCL2 cells were seeded in assay medium at a concentration of 50,000 cells per mL to a 96-well V-bottom cell culture plate with 200 μL per well. Compound (1 μL) from 96 well source plates was added directly to V-bottom cell plate. Plates were incubated on a titer-plate shaker at 37° C., 5% CO2 for 96 hours. After four days of incubation, plates were spun at 241×g for five minutes and medium was aspirated gently from each well of cell plate without disturbing cell pellet. Pellet was resuspended in 200 μL DPBS and plates were spun again at 241×g for five minutes. The supernatant was aspirated and cold (4° C.) Extraction buffer (100 μL) was added per well. Plates were incubated at 4° C. on orbital shaker for two hours. Plates were spun at 3427×g×10 minutes. Supernatant (80 μL per well) was transferred to its respective well in 96 well V-bottom polypropylene plate. Neutralization Buffer 5× (20 μL per well) was added to V-bottom polypropylene plate containing supernatant. V-bottom polypropylene plates containing crude histone preparation (CHP) were incubated on orbital shaker x five minutes. Crude Histone Preparations were added (2 μL per well) to each respective well into duplicate 96 well ELISA plates containing 100 μL Coating Buffer (1×PBS+BSA 0.05% w/v). Plates were sealed and incubated overnight at 4° C. The following day, plates were washed three times with 300 μL per well 1×PBST. Wells were blocked for two hours with 300 μL per well ELISA Diluent ((PBS (1×) BSA (2% w/v) and Tween20 (0.05% v/v)). Plates were washed three times with 1×PBST. For the Histone H3 detection plate, 100 μL per well were added of anti-Histone-H3 antibody (Abcam, ab1791) diluted 1:10,000 in ELISA Diluent. For H3K27 trimethylation detection plate, 100 μL per well were added of anti-H3K27me3 diluted 1:2000 in ELISA diluent. Plates were incubated for 90 minutes at room temperature. Plates were washed three times with 300 μL 1×PBST per well. For Histone H3 detection, 100 μL of HRP-conjugated anti-rabbit IgG antibody diluted to 1:6000 in ELISA diluent was added per well. For H3K27me3 detection, 100 μL of HRP conjugated anti-rabbit IgG antibody diluted to 1:4000 in ELISA diluent was added per well. Plates were incubated at room temperature for 90 minutes. Plates were washed four times with 1×PBST 300 μL per well. TMB substrate 100 μL was added per well. […]

[2] = molecular target: T1, wild-type EZH2 (PRC2 enzyme) (Homo sapiens, UniProt Q15910); experiment: PRC2 enzyme assay on peptide substrate, wild-type EZH2; type: biochemical; conditions: wild-type PRC2 enzyme 4 nM, H3K27me0 peptide, 3H-SAM Flashplate; read-out: WT EZH2 IC50
T1 construct: made in house; host or cells: Spodoptera frugiperda (sf9) cells, baculovirus
Description: (§2) General Materials. S-adenosylmethionine (SAM), S-adenosylhomocyteine (SAH), bicine, KCl, Tween20, dimethylsulfoxide (DMSO) and bovine skin gelatin (BSG) were purchased from Sigma-Aldrich at the highest level of purity possible. Dithiothreitol (DTT) was purchased from EMD. ^3H-SAM was purchased from American Radiolabeled Chemicals with a specific activity of 80 Ci/mmol. 384-well streptavidin Flashplates were purchased from PerkinElmer.
(§3) Peptides representative of human histone H3 residues 21-44 containing either an unmodified lysine 27 (H3K27me0) or dimethylated lysine 27 (H3K27me2) were synthesized with a C-terminal G(K-biotin) linker-affinity tag motif and a C-terminal amide cap by 21st Century Biochemicals. […] The sequences are listed below.
(§4) Human PRC2 enzymes were purified as 4-component enzyme complexes co-expressed in Spodoptera frugiperda (sf9) cells using a baculovirus expression system. […] The EED subunit contained an N-terminal FLAG tag that was used to purify the entire 4-component complex from sf9 cell lysates.
(§5) The assays were all performed in a buffer consisting of 20 mM bicine (pH=7.6), 0.5 mM DTT, 0.005% BSG and 0.002% Tween20, prepared on the day of use. Compounds in 100% DMSO (1 μL) were spotted into polypropylene 384-well V-bottom plates (Greiner) using a Platemate 2×3 outfitted with a 384-channel pipet head (Thermo). DMSO (1 μL) was added to columns 11, 12, 23, 24, rows A-H for the maximum signal control, and SAH, a known product and inhibitor of PRC2 (1 μL) was added to columns 11,12, 23, 24, rows I-P for the minimum signal control. A cocktail (40 μL) containing the wild-type PRC2 enzyme and H3K27me0 peptide or any of the Y641 mutant enzymes and H3K27me2 peptide was added by Multidrop Combi (Thermo). The compounds were allowed to incubate with PRC2 for 30 min at 25° C., then a cocktail (10 μL) containing a mixture of non-radioactive and ^3H-SAM was added to initiate the reaction (final volume=51 μL). In all cases, the final concentrations were as follows: wild-type or mutant PRC2 enzyme was 4 nM, SAH in the minimum signal control wells was 1 mM and the DMSO concentration was 1%. The assays were stopped by the addition of non-radioactive SAM (10 μL) to a final concentration of 600 μM, which dilutes the ^3H-SAM to a level where its incorporation into the peptide substrate is no longer detectable. 50 μL of the reaction in the 384-well polypropylene plate was then transferred to a 384-well Flashplate and the biotinylated peptides were allowed to bind to the streptavidin surface for at least 1 h before being washed three times with 0.1% Tween20 in a Biotek ELx405 plate washer. The plates were then read in a PerkinElmer TopCount platereader to measure the quantity of ^3H-labeled peptide bound to the Flashplate surface, measured as disintegrations per minute (dpm) or alternatively, referred to as counts per minute (cpm).
(§6) Where dpm=disintegrations per minute, cmpd=signal in assay well, and min and max are the respective minimum and maximum signal controls.
(§7) Where top and bottom are the normally allowed to float, but may be fixed at 100 or 0 respectively in a 3-parameter fit. The Hill Coefficient normally allowed to float but may also be fixed at 1 in a 3-parameter fit. Y is the % inhibition and X is the compound concentration.

[3] = molecular target: T2, EZH2 Y641F mutant (PRC2 enzyme) (Homo sapiens, UniProt Q15910, Y641F); experiment: PRC2 enzyme assay on peptide substrate, EZH2 Y641F mutant; type: biochemical; conditions: Y641F mutant PRC2 enzyme 4 nM, H3K27me2 peptide, 3H-SAM Flashplate
T2 construct: made in house; host or cells: Spodoptera frugiperda (sf9) cells, baculovirus
Description: as §2, §3, §4, §5, §6, §7

[4] = system: WSU-DLCL2 cells; experiment: Cell Proliferation Analysis, WSU-DLCL2; type: cell-based; conditions: Homo sapiens, WSUDLCL2, 144 h, 6 days, Cell Titer Glo
Description: WSU-DLCL2 suspension cells were purchased from DSMZ (German Collection of Microorganisms and Cell Cultures, Braunschweig, Germany). RPMI/Glutamax Medium, Penicillin-Streptomycin, Heat Inactivated Fetal Bovine Serum were purchased from Life Technologies, Grand Island, N.Y., USA. V-bottom polypropylene 384-well plates were purchased from Greiner Bio-One, Monroe, N.C., USA. Cell culture 384-well white opaque plates were purchased from Perkin Elmer, Waltham, Mass., USA. Cell-Titer Glo® was purchased from Promega Corporation, Madison, Wis., USA. SpectraMax M5 plate reader was purchased from Molecular Devices LLC, Sunnyvale, Calif., USA.
as §1, with “and” for “and 100 units/mL penicillin-streptomycin) and”, “CO2.” for “CO2”, “CO2.” for “CO2 on a plate shaker.”
For the assessment of the effect of compounds on the proliferation of the WSU-DLCL2 cell line, exponentially growing cells were plated in 384-well white opaque plates at a density of 1250 cell/ml in a final volume of 50 μl of assay medium. A compound source plate was prepared by performing triplicate nine-point 3-fold serial dilutions in DMSO, beginning at 10 mM (final top concentration of compound in the assay was 20 μM and the DMSO was 0.2%). A 100 nL aliquot from the compound stock plate was added to its respective well in the cell plate. […] After addition of compounds, assay plates were incubated for 6 days at 37° C., 5% CO2, relative humidity >90% for 6 days. Cell viability was measured by quantization of ATP present in the cell cultures, adding 35 μl of Cell Titer Glo® reagent to the cell plates. Luminescence was read in the SpectraMax M5. The concentration inhibiting cell viability by 50% was determined using a 4-parametric fit of the normalized dose response curves.

T1 sequence (Q15910 whole entry): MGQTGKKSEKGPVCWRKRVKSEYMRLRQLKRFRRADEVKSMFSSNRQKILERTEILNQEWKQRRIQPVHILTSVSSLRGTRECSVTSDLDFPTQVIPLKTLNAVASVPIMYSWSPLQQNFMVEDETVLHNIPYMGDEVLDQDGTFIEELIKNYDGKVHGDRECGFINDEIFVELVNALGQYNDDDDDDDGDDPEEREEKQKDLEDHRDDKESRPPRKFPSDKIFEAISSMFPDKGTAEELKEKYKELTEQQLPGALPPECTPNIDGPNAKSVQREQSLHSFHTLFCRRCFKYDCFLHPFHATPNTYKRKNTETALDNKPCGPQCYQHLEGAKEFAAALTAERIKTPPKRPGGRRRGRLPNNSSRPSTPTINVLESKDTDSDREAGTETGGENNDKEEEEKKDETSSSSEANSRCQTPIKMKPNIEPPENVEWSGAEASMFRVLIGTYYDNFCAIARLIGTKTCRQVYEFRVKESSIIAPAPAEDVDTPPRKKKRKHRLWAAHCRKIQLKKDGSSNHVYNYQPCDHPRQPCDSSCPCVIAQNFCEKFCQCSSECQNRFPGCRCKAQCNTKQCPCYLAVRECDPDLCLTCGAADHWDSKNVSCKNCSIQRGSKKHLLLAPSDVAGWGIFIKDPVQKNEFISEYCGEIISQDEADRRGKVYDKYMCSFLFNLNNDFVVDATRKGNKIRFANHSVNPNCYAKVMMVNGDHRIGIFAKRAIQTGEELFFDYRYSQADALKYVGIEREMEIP
T1 sequence (O75530 whole entry partner): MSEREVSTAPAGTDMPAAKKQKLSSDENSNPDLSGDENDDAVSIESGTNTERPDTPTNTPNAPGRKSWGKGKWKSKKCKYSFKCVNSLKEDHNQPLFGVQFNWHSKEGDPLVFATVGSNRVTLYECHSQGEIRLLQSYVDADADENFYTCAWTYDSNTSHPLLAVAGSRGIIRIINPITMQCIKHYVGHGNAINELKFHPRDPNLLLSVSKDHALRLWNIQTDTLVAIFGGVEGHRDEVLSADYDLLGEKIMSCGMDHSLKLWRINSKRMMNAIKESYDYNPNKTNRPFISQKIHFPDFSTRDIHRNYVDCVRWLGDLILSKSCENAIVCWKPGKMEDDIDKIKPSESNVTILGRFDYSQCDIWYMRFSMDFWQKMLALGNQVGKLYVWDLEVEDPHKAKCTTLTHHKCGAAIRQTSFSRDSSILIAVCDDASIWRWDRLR
T1 sequence (Q15022 whole entry partner): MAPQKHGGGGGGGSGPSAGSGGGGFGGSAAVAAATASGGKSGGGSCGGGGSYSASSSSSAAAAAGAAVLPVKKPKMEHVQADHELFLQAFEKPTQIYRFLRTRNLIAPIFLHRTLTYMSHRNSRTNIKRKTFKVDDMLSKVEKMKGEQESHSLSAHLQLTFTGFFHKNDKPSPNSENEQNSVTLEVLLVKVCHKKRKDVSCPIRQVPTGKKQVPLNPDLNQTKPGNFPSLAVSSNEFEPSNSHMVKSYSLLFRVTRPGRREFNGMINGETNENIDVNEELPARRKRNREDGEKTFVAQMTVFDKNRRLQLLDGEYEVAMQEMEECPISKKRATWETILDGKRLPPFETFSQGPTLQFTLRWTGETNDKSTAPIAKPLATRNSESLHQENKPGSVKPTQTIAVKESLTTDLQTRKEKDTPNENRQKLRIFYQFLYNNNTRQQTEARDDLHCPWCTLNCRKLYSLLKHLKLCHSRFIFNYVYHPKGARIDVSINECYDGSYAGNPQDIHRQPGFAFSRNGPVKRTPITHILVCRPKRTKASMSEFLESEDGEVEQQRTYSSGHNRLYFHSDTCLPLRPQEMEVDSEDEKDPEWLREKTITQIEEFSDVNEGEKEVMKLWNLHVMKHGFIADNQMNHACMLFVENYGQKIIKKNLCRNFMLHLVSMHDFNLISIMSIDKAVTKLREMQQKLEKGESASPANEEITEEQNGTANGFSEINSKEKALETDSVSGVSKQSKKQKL
T1 sequence (Q09028 whole entry partner): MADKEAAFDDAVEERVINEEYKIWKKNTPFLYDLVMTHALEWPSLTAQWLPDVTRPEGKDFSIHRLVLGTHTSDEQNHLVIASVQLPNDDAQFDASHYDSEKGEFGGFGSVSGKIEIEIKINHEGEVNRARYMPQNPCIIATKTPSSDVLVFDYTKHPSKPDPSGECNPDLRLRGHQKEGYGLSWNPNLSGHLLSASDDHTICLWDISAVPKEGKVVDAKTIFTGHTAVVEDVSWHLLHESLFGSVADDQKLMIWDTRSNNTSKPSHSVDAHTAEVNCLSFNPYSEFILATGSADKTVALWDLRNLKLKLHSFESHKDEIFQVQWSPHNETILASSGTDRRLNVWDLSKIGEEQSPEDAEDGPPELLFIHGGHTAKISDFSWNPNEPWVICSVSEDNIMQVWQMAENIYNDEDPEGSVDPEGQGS
T2 sequence (Q15910 whole entry Y641F): as the sequence (Q15910 whole entry) above, with Y641F counted along it
T2 sequence (O75530 whole entry partner): as the sequence (O75530 whole entry partner) above
T2 sequence (Q15022 whole entry partner): as the sequence (Q15022 whole entry partner) above
T2 sequence (Q09028 whole entry partner): as the sequence (Q09028 whole entry partner) above

| pIC50 [2] | pIC50 [3] | SMILES | pIC50 [1] | pIC50 [4] |
| --- | --- | --- | --- | --- |
| 9.00 | 8.30 | CCN(c1cc(Cl)cc(C(=O)NCc2c(C)[nH]c(C)cc2=O)c1C)[C@H]1CC[C@H](N(C)Cc2cccc(OC)c2)CC1 [Compound 99] | 6.25 |  |
| 6.89 | 6.93 | CCN(c1cc(C#CCN2CCOCC2)cc(C(=O)NCc2c(Cl)[nH]c(C)cc2=O)c1C)[C@H]1CC[C@H](N(C)C)CC1 [Compound 96] | 5.37 |  |
| 6.82 | 7.03 | CCN(c1cc(-c2ccc(OCCOC)cc2)cc(C(=O)NCc2c(Cl)[nH]c(C)cc2=O)c1C)[C@H]1CC[C@H](N(C)CCOC)CC1 [Compound 102] | 4.97 |  |
| 7.82 | 8.00 | CCN(c1cc(Cl)cc(C(=O)NCc2c(Cl)[nH]c(C)cc2=O)c1C)[C@H]1CC[C@H](N(C)Cc2cccc(OC)c2)CC1 [Compound 101] | 5.52 |  |

Continued, compound first:

| SMILES | pIC50 [2] | pIC50 [3] | pIC50 [1] | pIC50 [4] |
| --- | --- | --- | --- | --- |
| CCN(c1cc(Cl)cc(C(=O)NCc2c(C)[nH]c(C)cc2=O)c1C)C1CCN(CCOC)CC1 [Compound 103] | 6.44 | 6.47 | 4.38 |  |
| CCN(c1cc(Cl)cc(C(=O)NCc2c(Cl)[nH]c(C)cc2=O)c1C)C1CCN(CCOC)CC1 [Compound 104] | 6.06 | 6.22 | 4.31 |  |
| CCN(c1cc(-c2ccc(CN3CCOCC3)cc2)cc(C(=O)NCc2c(Cl)[nH]c(C)cc2=O)c1C)C1CCOCC1 [Compound 4, N-((2-chloro-6-methyl-4-oxo-1,4-dihydropyridin-3-yl)methyl)-5-(ethyl(tetrahydro-2H-pyran-4-yl)amino)-4-methyl-4′-(morpholinomethyl)-[1,1′-biphenyl]-3-carboxamide] |  |  | 5.04 | 5.17 |
| CCN(c1cc(C#CCN2CCOCC2)cc(C(=O)NCc2c(C)[nH]c(C)cc2=O)c1C)[C@H]1CC[C@H](N(C)C)CC1 [Compound 95] | 7.77 | 7.92 | 4.94 |  |
| CCN(c1cc(-c2ccc(CN3CCOCC3)cc2)cc(C(=O)NCc2c(C)[nH]c(C)cc2=O)c1C)C1CCOCC1 [Compound 2, N-((2,6-dimethyl-4-oxo-1,4-dihydropyridin-3-yl)methyl)-5-(ethyl(tetrahydro-2H-pyran-4-yl)amino)-4-methyl-4′-(morpholinomethyl)-[1,1′-biphenyl]-3-carboxamide] |  |  | 5.09 | 4.71 |
| CCN(c1cc(-c2ccc(CN3CCOCC3)cc2)cc(C(=O)NCc2c(C)[nH]c(C)cc2=O)c1C)[C@H]1CC[C@H](N(C)C)CC1 [Compound 98] |  |  | 5.51 | 5.36 |
| CCN(c1cc(C#CC2(C)COC2)cc(C(=O)NCc2c(C)[nH]c(C)cc2=O)c1C)[C@H]1CC[C@H](N(C)C)CC1 [Compound 97] | 8.30 | 8.10 | 5.04 |  |
